biological target: T1, P2X purinoceptor 7 (Homo sapiens, UniProt Q99572); assay: Ethidium Bromide Uptake Assay; conditions: pH 7.4
T1 sequence (Q99572 whole entry): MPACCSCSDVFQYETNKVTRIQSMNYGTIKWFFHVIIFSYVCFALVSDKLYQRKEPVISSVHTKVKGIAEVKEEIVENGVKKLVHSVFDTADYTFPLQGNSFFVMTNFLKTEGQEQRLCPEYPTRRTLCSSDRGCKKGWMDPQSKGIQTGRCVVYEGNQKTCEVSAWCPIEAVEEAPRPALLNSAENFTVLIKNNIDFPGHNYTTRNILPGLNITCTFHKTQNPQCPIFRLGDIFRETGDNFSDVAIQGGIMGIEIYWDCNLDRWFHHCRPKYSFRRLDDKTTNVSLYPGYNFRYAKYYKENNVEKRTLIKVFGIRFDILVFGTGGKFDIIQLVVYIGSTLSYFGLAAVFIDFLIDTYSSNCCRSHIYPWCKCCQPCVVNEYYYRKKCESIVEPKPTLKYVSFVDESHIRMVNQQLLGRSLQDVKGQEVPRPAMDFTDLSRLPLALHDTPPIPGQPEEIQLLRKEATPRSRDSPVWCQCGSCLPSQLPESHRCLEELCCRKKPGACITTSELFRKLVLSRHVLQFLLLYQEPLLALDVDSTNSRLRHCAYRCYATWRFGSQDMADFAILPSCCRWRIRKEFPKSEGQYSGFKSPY
Description: hP2X7-expressing HEK 293 cells were re-suspended at 2.5 × 10^6 cells/mL in assay buffer composed of 10 mM HEPES, 5 mM N-methyl-D-glutamine, 5.6 mM KCl, 10 mM D-glucose, and 0.5 mM CaCl2 (pH 7.4) supplemented with either 280 mM sucrose or 140 mM NaCl, and an 80 µL aliquot was added to each well of a 96-well plate. To each compound were added and KN-62 as the positive control, followed by the hP2X7R agonist benzoyl ATP (BzATP). The plates were incubated at 37 °C for 2 h and the cellular accumulation of ethidium ion was determined by measuring fluorescence (excitation = 530 nm; emission = 590 nm).

Row | SMILES | IC50 [µM]
1 | CC12CC3CC(C)(C1)CC(C(=O)NNc1ccnc4ccccc14)(C3)C2 [3,5-Dimethyl-N'-(quinolin-4-yl)adamantane-1-carbohydrazide (9g)] | 0.726
2 | CC12CC3CC(C)(C1)CC(C(=O)NNc1ncnc4ccccc14)(C3)C2 [3,5-Dimethyl-N'-(quinazolin-4-yl)adamantane-1-carbohydrazide (9k)] | 5.5
3 | CC12CC3CC(C)(C1)CC(C(=O)NNc1nc(Cl)nc4nc[nH]c14)(C3)C2 [N'-(2-Chloro-7H-purin-6-yl)-3,5-dimethyladamantane-1-carbohydrazide (9o)] | 0.176
4 | CC12CC3CC(C)(C1)CC(C(=O)NNc1ccnc4c(Cl)cccc14)(C3)C2 [N'-(8-Chloroquinoline-4-yl)-3,5-dimethyladamantanehydrazide (9j)] | 1.1
5 | CC12CC3CC(C)(C1)CC(C(=O)NNc1ccc4ccccc4n1)(C3)C2 [3,5-Dimethyl-N'-(quinolin-2-yl)adamantane-1-carbohydrazide (9i)] | 2.9
6 | CC12CC3CC(C)(C1)CC(C(=O)NNc1ncnc4nc[nH]c14)(C3)C2 [3,5-Dimethyl-N'-(7H-purin-6-yl)adamantane-1-carbohydrazide (9n)] | 2.88
7 | CC12CC3CC(C)(C1)CC(C(=O)NNc1cnc4ccccc4c1)(C3)C2 [3,5-Dimethyl-N'-(quinolin-3-yl)adamantane-1-carbohydrazide (9h)] | 3.7

— BindingDB's records for doi:10.1016/j.bioorg.2015.06.003 (Gwangju Institute of Science and Technology, 2015)
